Where a name gives a salt, the structure may show the parent alone.
Experiments:
[1] = Acute toxicity (LD50) of further compounds, determined in the same manner as ACP; assay type: in vivo; conditions: same manner as ACP (oral or subcutaneous, mice and rats)
Experimental: For oral administration, a suspension of ACP dispersed in an aqueous solution of 0.5% methylcellulose and 0.4% Tween 80 (nonionic surfactant, manufactured by TOKYO KASEI, Co., Ltd.) was prepared and administered to the animals via a stomach sonde. For subcutaneous administration, a suspension of ACP dispersed in an aqueous physiological saline solution containing 0.5% of carboxymethyl cellulose sodium (hereinafter referred to as "CMC") was prepared and injected to the animals with a syringe.
Further, the acute toxicities (LD50) of […]

[2] = test system: proteoglycan (PG) release under IL-1α; test: Proteoglycan (PG) release from prelabelled cultured cartilage matrix with addition of IL-1α; assay type: cell-based; conditions: for inhibition of PG release under IL-1α: 20 units of IL-1α, 10 μM; for inhibiting activity on PG release (further compounds): concentration not given
Experimental: Further, to a cultured cartilage matrix, in which PG is prelabelled in advance with 1 μCi of Na2^35 SO4, 20 units of IL-1α was added to each group including control group and 10 μM of PAL, 100 μM of PAL or 10 μM of ACP was added to each test group and studied the effect of each compound to the PG release from the cells.

[3] = test system: IL-1 release from human monocyte; test: Inhibition of IL-1 (IL-1α and IL-1β) release from human monocyte; assay type: cell-based; conditions: 3.3 μM; LPS 10 μg/ml, 42 hours
Experimental: Monocyte were isolated from human venous blood by density-gradient centrifugation using a Ficoll-paque solution and obtained the cells having a purity of not less than 95% by purifying with a monocyte-separating plate. After dispersing the cells in a medium, RPMI 1640, containing 10% of FBS, the monocyte were inoculated in a culture dish in a ratio of 10^6 cells/3 ml/well and cultured under an atmosphere containing 5% CO2 at 37° C. for 30 minutes. Then, each 15 μl of DMSO solution of one of ACP, PAL and PAC was added to each well (a final DMSO concentration of 0.5%) and 30 minutes later a lipopolysaccharide (hereinafter referred to as "LPS"), a substance to stimulate IL-1 production, was added at a final LPS concentration of 10 μg/ml and they were cultured for 42 hours. Then, the reacted culture medium was recovered and accompanied cells with the medium were separated by centrifugation and obtained the supernatant free of cell. IL-1α and IL-1β released from the cells were measured by ELISA method in the same manner as in item (i) above.

[4] = Acute toxicity (LD50) of PAC in male mice; assay type: in vivo; conditions: intraperitoneal
[5] = test system: IL-1 release from cultured cartilage cells; test: Inhibition of IL-1 release from cultured cartilage cells; assay type: cell-based, rabbit; conditions: 3.3 μM; TPA and A 23187 stimulation, 24 hours
Experimental: Cartilages were aseptically taken out from knee and shoulder joints of young rabbit, treated with a Ham medium containing 0.2% collagenase and separated each other into single cells. After washed two times with a Ham medium containing 10% FBS, the cells were dispersed into the Ham medium containing 10% FBS at a concentration of 10^5 cells/ml. […] After 24 hours of cultivation, IL-1 released into each of the supernatants was measured by a bioassay applying an incorporated amount of ^3 H-thymidine (^3 H-TdR) as an index. […] In the Figure, "Intact" means a case TPA and the ionophore were not added and accordingly no stimulation of IL-1 release was given.

[6] = test system: IL-1α production in human synovial cells; test: Inhibition of IL-1α production in human synovial cells; assay type: cell-based; conditions: 33 μM; TPA and A 23187 stimulation, 40 hours
Experimental: (§1) Human synovial membrane obtained at an operation was treated with collagenase to obtain synovial cells, which were subcultured several times and inoculated on a 12-well culture dish. On reaching to confluence, the cells were provided to the test described below. The synovial cells produce IL-1 but release only a little amount and accordingly are appropriate cells to study an inhibition or an acceleration of IL-1 intracellular production.
(§2) Each DMSO (dimethylsulfoxide) solution containing one of ACP, PAL and PAC separately in a concentration of 400 times that of the final test and DMSO solution not containing any of the compound as a control, were diluted to 40 times in its volume with a medium containing fetal bovine serum (hereinafter referred to as "FBS") [Ham Medium]. 100 μl of the diluted solution was added to each well and further, 800 μl of the medium [Ham] was added to each well. […] The concentration of TPA and the ionophore in the medium were adjusted so that their final concentration in the well became 0.1 μg/ml and 0.2 μg/ml, respectively and a production of IL-1 was stimulated. Final volume of the liquid (medium) per well was 1 ml/well. After 40 hours of culture, liquid portion was removed from each well and 1 ml of a Ham medium was added to the remaining cells in each well. Freeze-thawing was repeated on the medium containing the cells several times to destroy all the cells in the medium and supernatants containing intracellular substances were obtained by centrifugation. IL-1α and IL-1β in the supernatant were determined by ELISA method using a prescribed enzyme-antibody-complex (manufactured by OHTSUKA SEIYAKU, Co., Ltd.) as intracellular IL-1s. [Refer to ENSHO, vol.

[7] = test system: proteoglycan (PG) in cultured cartilage cells; test: Synthesis, release and remaining amount of proteoglycan (PG) in cultured cartilage cells; assay type: cell-based, rat
Experimental: Costal cartilage was aseptically taken out from male SD rats of 4 weeks age, enzymatically treated to separate it into single cells, then inoculated into a 12-well culture dish and cultured under an atmosphere containing 5% CO2 at 37° C. After the chondrocytes had been grown to confluence, 1 to 10 μM of PAL or 10 to 100 μM of PAC was added and three hours later, 2 μCi of Na2^35 SO4 was further added to each well. Twenty four hours later, the synthesis amount in, release amount from and remaining amount of PG in the matrix were determined using amount of ^35 S as an index. […] In the Figures, the PG release in the control was defined as 100%. […] In FIGS. 4(a), 4(b) and 4(c), the released amount of PG means the amount representing the PG degraded in and released from cartilage matrixes, which was calculated on a basis of ^35 S in the culture medium. The remaining amount of PG means the PG not degraded in the matrixes and was also calculated in the same way as above. Sum of the released and the remaining amounts of PG is thought to be a synthesized PG.

[8] = test system: IL-1β production in human synovial cells; test: Inhibition of IL-1β production in human synovial cells; assay type: cell-based; conditions: 33 μM; TPA and A 23187 stimulation, 40 hours
Experimental: as §1, §2

SMILES | acute toxicities (LD50), compared with ACP [1] | inhibiting activity on PG release (further compounds) [2] | also measured
CCCCCCCCCCCCCCCCCC(=O)Oc1ccc(C(OC(=O)CCCCCCCCCCCCCCCCC)OC(=O)CCCCCCCCCCCCCCCCC)cc1OC(=O)CCCCCCCCCCCCCCCCC [3,4-di-n-octadecanoyloxybenzylidene di-n-octadecanoate] | approximately same values |  | inhibition of PG release under IL-1α [2]: inhibited the release amount of PG; inhibition of IL-1 release [3]: significantly inhibit
CC(=O)Oc1ccc(C(=O)O)cc1OC(C)=O [3,4-diacetoxybenzoic acid] | approximately same values | same effects | 
CCCCCCCCCCCCCCCCCC(=O)OC(OC(=O)CCCCCCCCCCCCCCCCC)c1ccc(OC(C)=O)c(OC(C)=O)c1 [3,4-diacetoxybenzylidene di-n-octadecanoate] | approximately same values | same effects | 
CCCCCCCCCCCC(=O)Oc1ccc(C(OC(=O)CCCCCCCCCCC)OC(=O)CCCCCCCCCCC)cc1OC(=O)CCCCCCCCCCC [3,4-di-n-dodecanoyloxybenzylidene di-n-dodecanoate] | approximately same values |  | inhibition of PG release under IL-1α [2]: inhibited the release amount of PG; inhibition of IL-1 release [3]: significantly inhibit
CCCCCCCCCCCCCC(=O)Oc1ccc(C(OC(=O)CCCCCCCCCCCCC)OC(=O)CCCCCCCCCCCCC)cc1OC(=O)CCCCCCCCCCCCC [3,4-di-n-tetradecanoyloxybenzylidene di-n-tetradecanoate] | approximately same values | same effects | 
O=C(Oc1ccc(C(OC(=O)c2ccccc2)OC(=O)c2ccccc2)cc1OC(=O)c1ccccc1)c1ccccc1 [3,4-dibenzoyloxybenzylidene dibenzoate] | approximately same values |  | inhibition of PG release under IL-1α [2]: inhibited the release amount of PG; inhibition of IL-1 release [3]: significantly inhibit
CC(=O)Oc1ccc(C=O)cc1OC(C)=O [3,4-diacetoxybenzaldehyde] | approximately same values | same effects | 
CCCCCCCCCCCCCCCCCC(=O)Oc1ccc(C(OC(C)=O)OC(C)=O)cc1OC(=O)CCCCCCCCCCCCCCCCC [3,4-di-n-octadecanoyloxybenzylidene diacetate] | approximately same values | same effects | 
CCCCCCCCCCCCCCCC(=O)Oc1ccc(C(OC(=O)CCCCCCCCCCCCCCC)OC(=O)CCCCCCCCCCCCCCC)cc1OC(=O)CCCCCCCCCCCCCCC [3,4-di-n-hexadecanoyloxybenzylidene di-n-hexadecanoate] | approximately same values | same effects | 
CC(=O)Oc1ccc(C(=O)[O-])cc1OC(C)=O.[Na+] [3,4-diacetoxybenzoic acid sodium salt] | approximately same values | same effects | 
CCCC(=O)Oc1ccc(C(OC(=O)CCC)OC(=O)CCC)cc1OC(=O)CCC [3,4-di-n-butyryloxybenzylidene di-n-butyrate] | approximately same values | same effects | 
CCC(=O)Oc1ccc(C(OC(=O)CC)OC(=O)CC)cc1OC(=O)CC [3,4-di-n-propionyloxybenzylidene di-n-propionate] | approximately same values |  | inhibition of PG release under IL-1α [2]: inhibited the release amount of PG; inhibition of IL-1 release [3]: significantly inhibit
CCCCCCCCCCCCCCCCCC(=O)Oc1ccc(C=O)cc1OC(=O)CCCCCCCCCCCCCCCCC [3,4-di-n-octadecanoyloxybenzaldehyde] | approximately same values | same effects | 
O=C(O)c1ccc(O)c(O)c1 [sodium salt of PAC] |  |  | LD50 value, compared with PAC ([4]; level relative to PAC (not less than 400 mg/kg)): same level of LD50 value
O=C(O)c1ccc(O)c(O)c1 [PAC, 3,4-dihydroxybenzoic acid] |  | same effects | inhibition of IL-1 release from cartilage cells [5]: inhibit the release of IL-1; inhibiting activity of IL-1α production [6]: inhibiting activity of IL-1α only; LD50 at 192 h ([4]; mouse, in vivo, ip, observed 8 days): ≥ 400 mg/kg; effect on PG synthesis ([7]; PAL 1 to 10 μM, PAC 10 to 100 μM, 24 hours): no effect; inhibition of PG release ([7]; PAL 1 to 10 μM, PAC 10 to 100 μM, control release 100%): exhibited inhibiting activities on the PG release; remaining amount of PG in the matrix ([7]; PAL between 1 and 3.3 μM, PAC between 10 and 100 μM): increased in proportion to the adding amount; inhibiting activity of IL-1β production [8]: inhibiting activity of IL-1α only
O=Cc1ccc(OC(=O)c2ccccc2)c(OC(=O)c2ccccc2)c1 [3,4-dibenzoyloxybenzaldehyde] | approximately same values | same effects | 
